Reference: patent US11911394B2, “Compound and method for the prevention of transmission of influenza virus” (Hoffmann-La Roche Inc., priority 2019, dated 2024)

Columns and labels:
[1] = tested on: influenza A virus A/England/195/2009; experiment: Example 1 ferret transmission study, real-time RT-PCR of nasal wash; type: in vivo; conditions: positive/total; for Sentinel DC ferrets positive for influenza as detected by the qRT-PCR: direct contact sentinels; for Sentinel RD ferrets positive for influenza as detected by the qRT-PCR: respiratory droplet sentinels
Procedure: In this experiment baloxavir was administered once to ferrets as s.c. suspension with 1 mg/kg at 4 different locations in the back. Oseltamivir phosphate (5 mg/kg) was orally administered twice daily for 5 days.
24 hours post infection, the 4 infected ferrets were nasal washed. Nasal washes were assayed immediately by plaquing on fresh MDCK cells for infectious virus and carrying out RT-PCR for viral RNA load. Each donor ferret was then treated with either baloxavir, oseltamivir phosphate or vehicle only. Baloxavir was administered once subcutaneously in 4 locations on the back with 1 mg/l mL/kg per injection (total 4 mg/4 mL/kg). After dosing of baloxavir blood samples (minimum 200 μl) were collected from the donor animals at 48 h and 144 h, respectively, for pharmacokinetics (PK) analysis.
A 5 mg/kg dose of oseltamivir phosphate was orally administered twice daily for 5 days, which is considered to be equivalent to the standard human adult dose of 75 mg for treatment (J Antimicrob Chemother 2014; 69: 2458-2469). After drug administration on day 1 one sentinel animal was introduced into same cage as each infected donor (DC animal) and one sentinel animal was introduced into adjacent cage (RD animal). Sentinel animals were not treated with any drug.
All ferrets were nasal washed on day 2 and every subsequent day until experiment end starting with RD animals, then DC animals, and finishing with donors. Plaque assay was performed immediately on nasal wash. Virus RNA was also monitored by RT-PCR. Daily observation of clinical signs including temperature, weight loss and respiratory signs was performed. In addition, virus exhaled in breath from the 4 donor animals was monitored by placing them in a chamber for 10 minutes and sampling air using sentinel MDCK cells.
140 μl of ferret nasal wash was used to extract RNA using the Qiagen Viral RNA mini kit (Cat No./ID: 52904), according to manufacturer's instructions.
Real-time PCR was performed using 7500 Real Time PCR system (ABI) in 20 μl reactions using AgPath-ID™ One-Step RT-PCR Reagents 10 μl RT-PCR buffer (2×) (Thermo Fisher, Cat. No. 4387391), 4 μl of RNA, 0.8 μl forward (5′[…] 3′, SEQ ID NO:1) and reverse primers (5′ […]3′, SEQ ID NO:2) and 0.4 μl probe (5′ FAM-[…]-BHQ1 3′, SEQ ID NO:3). Reverse transcription was carried out at 45° C. for 10 min. PCR amplification conditions consisted of 95° C. for 15 s and 60° C. for 1 min after an initial denaturation step at 95° C. for 10 min. In total 40 cycles were performed. For each sample, the Ct value for the target M gene was determined. M gene is an influenza gene encoding the 2 Matrix proteins M1 and M2. The M gene is detected in PCR and can be used to quantify the influenza virus. Based on the standard curves, absolute copy numbers were calculated to establish if the ferret was positive for influenza A.

[2] = tested on: Influenza A/Perth/265/2009 H1N1pdm09 virus; experiment: Example 2 ferret contact transmission study, quantitative real-time RT-PCR of nasal wash; type: in vivo; conditions: for donor viral copy numbers (qRT-PCR) compared to placebo: 3 DPI (p≤0.05), nasal wash; for recipients with influenza virus RNA detected (qRT-PCR) / ferrets with viral RNA detected (qRT-PCR), FIG. 13B recipient results: positive/total; for ferrets with viral RNA detected (qRT-PCR), FIG. 13B recipient results: Example 2 Experiment 3, printed as donors
Procedure: The active form baloxavir acid (S-033447, hereafter BXA) and pro-drug oseltamivir phosphate (hereafter OST) was kindly provided by Shionogi & Co., Ltd., Japan. The vehicle for BXA delivery was methyl cellulose (Sigma-Aldrich, Australia) in 0.5 w/v % aqueous solution prepared with sterile water (hereafter MC solution). BXA in suspension with MC solution (1 mg/mL) was prepared using an agate mortar and pestle, and was delivered to reversibly anaesthetised animals in a single treatment consisting of 4 subcutaneous injections at 4 locations on the dorsal region (total dose 4 mg/kg per animal). Animals in the placebo group were dosed identically using MC solution (1 mL/kg) alone. OST doses (10 mg/mL) were prepared in sugar solution (1 g/mL) and delivered bis in die (8 hr interval) to non-sedated ferrets by the oral route (total dose 10 mg/kg/day).
Viral RNA was extracted from 200 μL nasal wash samples using the NucleoMag VET isolation kit (Macherey Nagel) on the KingFisher Flex (ThermoFisher Scientific) platform according to manufacturer's instructions. Influenza virus M gene copy number in 4 μL RNA was determined by quantitative real-time RT-PCR performed using the SensiFAST Probe Lo-ROX One-Step qRT-PCR System Kit (Bioline) on the ABI 7500 Real Time PCR System (Applied Biosystems) under the following cycling conditions: 45° C. for 10 min, 1 cycle; 95° C. for 2 min, 1 cycle; 95° C. for 5 sec then 60° C. for 30 sec, 40 cycles. Sample RNA was quantitated using influenza A RNA standards of known copy number, kindly provided by Seqirus, Australia. Universal influenza A real-time primer/probe sets were kindly provided by CDC Influenza Branch (Atlanta, USA) (sequences available upon request). Results were analysed by 7500 Fast System SDS software v1.5.1.
Data analysis was performed using Graphpad Prism (GraphPad Software, v5.01). Nasal wash viral titres of all ferrets on each day post inoculation/exposure were compared by a matched two-way analysis of variance (ANOVA) followed by Tukey's multiple comparisons test. Quantitative real time RT-PCR was performed on influenza control RNA of known copy number to generate a standard curve (linear regression of influenza cycle threshold (Ct) values vs. copy number). Viral copy numbers present in nasal wash RNA samples on the same assay were calculated using the formula of the standard curve. Influenza A copy numbers for each group of ferrets were compared by a matched two-way ANOVA followed by Tukey's multiple comparisons test. p<0.05 was considered statistically significant.
This study consisted of three separate Experiments using different schedules of antiviral treatment and timing of naïve animal co-housing. In each experiment, twenty-four ferrets were randomly assigned to three groups (n=8): BXA, OST and placebo. Within each group, n=4 ferrets were designated as treated donor ferrets, and n=4 as naïve recipients. On 0 DPI (days post inoculation) for each experiment, all donor ferrets (each individually housed) were intranasally inoculated with influenza A/Perth/265/2009 at […] tissue culture infective doses (TCID50) in 40 μL of phosphate-buffered saline (PBS). As described above, donors in the BXA and placebo groups received a single antiviral treatment, whereas OST-group donors were treated daily until endpoint (excluding cull day). At the designated time point, naïve recipient ferrets were co-housed with treated donor ferrets (1:1 per cage) for a contact exposure period of 48 hr.
Experiment 1: Antiviral treatment for all donors commenced at 1 DPI, and naïve recipient ferrets were co-housed immediately following treatment. Body weight and temperature were monitored daily from all animals. Daily nasal wash samples were collected 1 mL of PBS from 1 DPI to 3 DPI for donor animals, and 1 day post exposure (DPE) to 10 DPE for recipient animals. Donors were sacrificed at 3 DPI (2 DPE), and blood was collected from BXA- and placebo-treated ferrets by cardiac puncture. […]

| Structure (SMILES) | Sentinel DC ferrets positive for influenza as detected by the qRT-PCR [1] | Donor ferrets positive for influenza as detected by the qRT-PCR [1] | Sentinel RD ferrets positive for influenza as detected by the qRT-PCR [1] | donor viral copy numbers (qRT-PCR) compared to placebo ([2]; Example 2 Experiment 1) | recipients with influenza virus RNA detected (qRT-PCR) ([2]; Example 2 Experiment 1) | donor mean viral copy number (qRT-PCR) ([2]; Example 2 Experiment 2, 3 DPI, no differences at any other days) | recipients with influenza virus RNA detected (qRT-PCR) ([2]; Example 2 Experiment 2) | ferrets with viral RNA detected (qRT-PCR), FIG. 13B recipient results [2] |
| --- | --- | --- | --- | --- | --- | --- | --- | --- |
| O=C1c2c(O)c(=O)ccn2N([C@@H]2c3ccccc3SCc3c2ccc(F)c3F)[C@@H]2COCCN12 [baloxavir, baloxavir acid] | 4/4 | 4/4 | 1/4 | significantly reduced | 2/4 | reduced | 1/4 | 3/4 |
| CCOC(=O)C1=C[C@@H](OC(CC)CC)[C@H](NC(C)=O)[C@@H](N)C1 [oseltamivir, oseltamivir phosphate, reference compound] | 4/4 | 4/4 | 4/4 | significantly reduced | 4/4 | – | 4/4 | 4/4 |
